The text below walks through data of patent US10336701B2, “Pyridin-2-one derivatives of formula (II) useful as EP3 receptor antagonists” (Janssen Pharmaceutica NV, priority 2017, dated 2019).

In general, Ki refers to a dissociation constant, usually derived from enzyme kinetics or from competition with a known ligand.

In one experiment the target is T1, EP3 receptor (Homo sapiens, UniProt P43115).
T1 construct: purchased Millipore HTS092M
T1 sequence (P43115 1-390): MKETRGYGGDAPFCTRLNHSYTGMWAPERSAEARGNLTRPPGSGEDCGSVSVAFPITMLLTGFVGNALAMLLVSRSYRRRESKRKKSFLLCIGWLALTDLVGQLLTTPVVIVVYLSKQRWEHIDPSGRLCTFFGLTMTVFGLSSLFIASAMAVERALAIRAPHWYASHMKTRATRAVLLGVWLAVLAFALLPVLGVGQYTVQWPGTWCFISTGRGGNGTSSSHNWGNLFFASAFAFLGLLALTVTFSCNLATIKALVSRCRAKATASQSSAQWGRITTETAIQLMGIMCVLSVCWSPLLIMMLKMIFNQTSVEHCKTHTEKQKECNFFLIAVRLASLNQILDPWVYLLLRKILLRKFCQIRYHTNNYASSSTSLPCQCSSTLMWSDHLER
Kind of experiment: [3H]-PGE2 binding assay (EP3 competition binding). Particulars: [3H]-PGE2 Binding Ki. On the procedure: EP3 competition binding was determined using the following materials and experimental conditions:
Beads=Perkin Elmer RPNQ0001
EP3 membrane=Millipore HTS092M
Membrane concentration=2 μg/well
Beads concentration=0.25 mg/well
[3H]-PGE2=2 nM; DMSO—0.1%
Binding buffer=50 mM Tris, 10 mM MgCl2, 1 mM • EDTA, PH 7.4.
The binding buffer was removed from refrigeration (@ 4° C.) and allowed to warm to room temperature. Test compound (@ stock concentration of […] in DMSO) was serial dilutes (1:3) with 100% DMSO using Echo plate. Diluted test compound (30 nL) was dispensed to the 384-well assay plate (using Echo 550 Labcyte System). To each well was then added assay buffer (5 μl) and each well was spun. Beads were weighed out, dissolved in assay buffer to a concentration of 0.25 mg/15 μl. Original membrane was diluted with assay buffer to a concentration of 2 μg/5 μl. […] To each test well were then added diluted [3H]-PGE2 (5 μl), diluted membrane (5 μl), and dissolved beads (15 μl). The plate was equilibrated at room temperature on a plate shaker for 2 hours and then read with a TOPCOUNT scintillation plate reader. Results were analyzed using a Prism program with non-linear regression, one-site fit for Ki.
`CCn1ncc2c(F)cc(-c3ccc(C4CC5CCC(C4)N5S(=O)(=O)C(C)C)c(=O)[nH]3)cc21` (stereo not drawn) [compound 206, 6-(1-ethyl-4-fluoro-1H-indazol-6-yl)-3-(8-(isopropylsulfonyl)-8-azabicyclo[3.2.1]octan-3-yl)pyridin-2(1H)-one]: the affinity, expressed as Ki, was 25 nM.

The same experiment, now with this note: read-out: [3H]-PGE2 Binding Ki.
Take `CCn1ncc2c(F)cc(-c3[nH]c(=O)c(C(CC)(CC)c4nnc[nH]4)cc3F)cc21` [compound 36, 3-(3-(4H-1,2,4-triazol-3-yl)pentan-3-yl)-6-(1-ethyl-4-fluoro-1H-indazol-6-yl)-5-fluoropyridin-2(1H)-one]: the Ki came to 195 nM.

For `CCn1ncc2c(F)cc(-c3ccc(C(CC4(C)CCNC4=O)C(C)C)c(=O)[nH]3)cc21` (stereo not drawn) [compound 146, 6-(1-ethyl-4-fluoro-1H-indazol-6-yl)-3-(3-methyl-1-(3-methyl-2-oxopyrrolidin-3-yl)butan-2-yl)pyridin-2(1H)-one], the inhibition constant (Ki) was 6 nM.

Regarding `CCn1ncc2c(F)cc(-c3ccc(C(CC)(CC)c4nnc(N)o4)c(=O)[nH]3)cc21` [Compound #51, 3-(3-(5-amino-1,3,4-oxadiazol-2-yl)pentan-3-yl)-6-(1-ethyl-4-fluoro-1H-indazol-6-yl)pyridin-2(1H)-one], the Ki was 2060 nM.

Turning to `CCn1ncc2c(F)cc(-c3ccc(C(CC4CCC(=O)N4)C(C)C)c(=O)[nH]3)cc21` (stereo not drawn) [compound 151, 6-(1-ethyl-4-fluoro-1H-indazol-6-yl)-3-(3-methyl-1-(5-oxopyrrolidin-2-yl)butan-2-yl)pyridin-2(1H)-one], the Ki worked out at 11 nM.

Consider `CC(C)c1cccc2ccc(-c3ccc(C(/C=C4\OC(=O)NC4=O)C(C)C)c(=O)[nH]3)cc12` (stereo not drawn) [compound 135, (Z)-5-(2-(6-(8-isopropylnaphthalen-2-yl)-2-oxo-1,2-dihydropyridin-3-yl)-3-methylbutylidene)oxazolidine-2,4-dione], for which the Ki is 85 nM.

Regarding `CCn1ncc2c(F)cc(-c3ccc(C4CCC5(CCNC5=O)CC4)c(=O)[nH]3)cc21` (stereo not drawn) [compound 207, 8-(6-(1-ethyl-4-fluoro-1H-indazol-6-yl)-2-oxo-1,2-dihydropyridin-3-yl)-2-azaspiro[4.5]decan-1-one], the Ki was determined as 15 nM.

For the compound `CCC(CC)(c1nnc[nH]1)c1ccc(-c2ccc3c(F)cc(F)cc3c2)[nH]c1=O` [compound 33, 3-(3-(4H-1,2,4-triazol-3-yl)pentan-3-yl)-6-(5,7-difluoronaphthalen-2-yl)pyridin-2(1H)-one], the Ki worked out at 735 nM.

Regarding `CCn1ncc2c(F)cc(-c3ccc(C(CC)(CC)c4nnc(N(C)C)o4)c(=O)[nH]3)cc21` [Compound #57, 3-(3-(5-(dimethylamino)-1,3,4-oxadiazol-2-yl)pentan-3-yl)-6-(1-ethyl-4-fluoro-1H-indazol-6-yl)pyridin-2(1H)-one], the Ki was found to be 6 nM.

Consider `CCn1ncc2c(F)cc(-c3ccc(C4CCC5(CC4)CCN(S(=O)(=O)C(C)C)CC5)c(=O)[nH]3)cc21` [compound 204, 6-(1-ethyl-4-fluoroindazol-6-yl)-3-[3-(propane-2-sulfonyl)-3-azaspiro[5.5]undecan-9-yl]-1H-pyridin-2-one], for which the Ki is 12 nM.

With `CCC(/C=C1/OC(=O)NC1=O)(CC)c1ccc(-c2ccc3cc(F)cc(F)c3c2)[nH]c1=O` [compound 32, (E)-5-(2-(6-(6,8-difluoronaphthalen-2-yl)-2-oxo-1,2-dihydropyridin-3-yl)-2-ethylbutylidene)oxazolidine-2,4-dione], the Ki turned out to be 292 nM.

With `CCn1ncc2c(F)cc(-c3[nH]c(=O)c(C(CC)(CC)CC4=CCNC4=O)cc3F)cc21` [compound 46, 6-(1-ethyl-4-fluoro-1H-indazol-6-yl)-5-fluoro-3-(3-((2-oxo-2,5-dihydro-1H-pyrrol-3-yl)methyl)pentan-3-yl)pyridin-2(1H)-one], the Ki was determined as 452 nM.

Take `CCC(/C=C1/OC(=O)NC1=O)(CC)c1ccc(-c2ccc3c(F)cc(F)cc3c2)[nH]c1=O` [compound 10, (E)-5-(2-(6-(5,7-difluoronaphthalen-2-yl)-2-oxo-1,2-dihydropyridin-3-yl)-2-ethylbutylidene)oxazolidine-2,4-dione]: the Ki amounted to 28 nM.

As for `CCn1ncc2c(F)cc(-c3ccc(C(CC)(CC)c4nnc(C)o4)c(=O)[nH]3)cc21` [Compound #271, 6-(1-ethyl-4-fluoro-1H-indazol-6-yl)-3-(3-(5-methyl-1,3,4-oxadiazol-2-yl)pentan-3-yl)pyridin-2(1H)-one], the Ki came to 6 nM.

With `CCN1CCOc2c(F)cc(-c3ccc(C(CC)(CC)CC4CCNC4=O)c(=O)[nH]3)cc21` (stereo not drawn) [compound 17, 6-(4-ethyl-8-fluoro-3,4-dihydro-2H-benzo[b][1,4]oxazin-6-yl)-3-(3-((2-oxopyrrolidin-3-yl)methyl)pentan-3-yl)pyridin-2(1H)-one], the Ki is 14 nM.

Regarding `CC(C)C(/C=C1\OC(=O)NC1=O)c1ccc(-c2ccc3cccc(C#N)c3c2)[nH]c1=O` (mixture of isomers) [compound 142, (Z)-7-(5-(1-(2,4-dioxooxazolidin-5-ylidene)-3-methylbutan-2-yl)-6-oxo-1,6-dihydropyridin-2-yl)-1-naphthonitrile], the inhibition constant (Ki) was determined as 121 nM.

For the compound `CCn1ncc2c(F)cc(-c3ccc(C(C(C)C)n4cnnn4)c(=O)[nH]3)cc21` (stereo not drawn) [Compound #171, 6-(1-ethyl-4-fluoro-1H-indazol-6-yl)-3-(2-methyl-1-(1H-tetrazol-1-yl)propyl)pyridin-2(1H)-one], the Ki was found to be 29 nM.

For `CCN1CCOc2c(F)cc(-c3ccc(C(/C=C4\CCNC4=O)(CC)CC)c(=O)[nH]3)cc21` [compound 25, (E)-6-(4-ethyl-8-fluoro-3,4-dihydro-2H-benzo[b][1,4]oxazin-6-yl)-3-(3-((2-oxopyrrolidin-3-ylidene)methyl)pentan-3-yl)pyridin-2(1H)-one], the Ki was more than 10000 nM.

`CCn1ncc2c(F)cc(-c3ccc(C4CC5CN(C(=O)NC(C)C)CC5C4)c(=O)[nH]3)cc21` (stereo not drawn) [compound 209, 5-(6-(1-ethyl-4-fluoro-1H-indazol-6-yl)-2-oxo-1,2-dihydropyridin-3-yl)-N-isopropyl-hexahydrocyclopenta[c]pyrrole-2(1H)-carboxamide]: the Ki came to 20 nM.

`CCn1ncc2c(F)cc(-c3ccc(C(CC)(CC)c4nnc(N(C)C)s4)c(=O)[nH]3)cc21` [Compound #48, 3-(3-(5-(dimethylamino)-1,3,4-thiadiazol-2-yl)pentan-3-yl)-6-(1-ethyl-4-fluoro-1H-indazol-6-yl)pyridin-2(1H)-one]: the Ki worked out at 2 nM.

With `CCn1ncc2c(F)cc(-c3ccc(C(CC)(CC)Cc4ncc[nH]4)c(=O)[nH]3)cc21` [compound 20, 3-(3-((1H-imidazol-2-yl)methyl)pentan-3-yl)-6-(1-ethyl-4-fluoro-1H-indazol-6-yl)pyridin-2(1H)-one], the Ki is 11 nM.

In the case of `CCC(/C=C1\OC(=O)NC1=O)(CC)c1ccc(-c2ccc3cccc(C(F)(F)F)c3c2)[nH]c1=O` [compound 23, 5-(2-ethyl-2-(2-oxo-6-(8-(trifluoromethyl)naphthalen-2-yl)-1,2-dihydropyridin-3-yl)butylidene)oxazolidine-2,4-dione], the Ki worked out at 228 nM.

Turning to `CCn1ncc2c(F)cc(-c3ccc(C(CC)(CC)Cc4nnc[nH]4)c(=O)[nH]3)cc21` [compound 15, 3-(3-((4H-1,2,4-triazol-3-yl)methyl)pentan-3-yl)-6-(1-ethyl-4-fluoro-1H-indazol-6-yl)pyridin-2(1H)-one], the Ki is 7 nM.

For `CCn1ncc2c(F)cc(-c3ccc(C(CC)(CC)c4nnc(N)s4)c(=O)[nH]3)cc21` [Compound #52, 3-(3-(5-amino-1,3,4-thiadiazol-2-yl)pentan-3-yl)-6-(1-ethyl-4-fluoro-1H-indazol-6-yl)pyridin-2(1H)-one], the Ki worked out at 19 nM.

Take `CCn1ncc2c(F)cc(-c3ccc(C(CC)(CC)c4nnc(C(C)C)o4)c(=O)[nH]3)cc21` [Compound #38, 6-(1-ethyl-4-fluoro-1H-indazol-6-yl)-3-(3-(5-isopropyl-1,3,4-oxadiazol-2-yl)pentan-3-yl)pyridin-2(1H)-one]: the Ki came to 13 nM.

With `CCn1ncc2c(F)cc(-c3ccc(C4CC5CN(S(=O)(=O)C(C)C)CC5C4)c(=O)[nH]3)cc21` (stereo not drawn) [compound 205, 6-(1-ethyl-4-fluoro-1H-indazol-6-yl)-3-(2-(isopropylsulfonyl)-octahydrocyclopenta[c]pyrrol-5-yl)pyridin-2(1H)-one], the Ki was 51 nM.

`CCn1ncc2c(F)cc(-c3[nH]c(=O)c(C(/C=C4\CCNC4=O)(CC)CC)cc3F)cc21` [compound 47, (E)-6-(1-ethyl-4-fluoro-1H-indazol-6-yl)-5-fluoro-3-(3-((2-oxopyrrolidin-3-ylidene)methyl)pentan-3-yl)pyridin-2(1H)-one]: the inhibition constant Ki was 25 nM.
